pIC50: −log10 of the molar value. In brackets after ≈: the same amount, converted by molar mass. Where two headings read alike, the source gives them in different places.
How the values were obtained:
[1] = system: Rhodotorula glutinis DSM 10134; test: MIC serial dilution assay; assay type: cell-based; set-up: key: (-): No inhibition; conditions: Rhodoturula glutinis, starting concentration 66.7 μg/mL
Procedure: (§1) The Minimum Inhibitory Concentration (MIC) of the isolated metabolites (1–8) was evaluated using serial dilution assays in a 96-well microtiter plate against a panel of Gram-positive bacteria, namely Bacillus subtilis DSM 10, Mycobacterium smegmatis ATCC 700084 and Staphylococcus aureus DSM 346; Gram-negative bacteria, including Acinetobacter baumannii DSM 30008, Chromobacterium violaceum DSM 30191, Escherichia coli DSM 1116 and Pseudomonas aeruginosa PA14 and fungal cultures of Candida albicans DSM 1665, Mucor hiemalis DSM 2656, Rhodotorula glutinis DSM 10134, Schizosaccharomyces pombe DSM 70572 and Wickerhamomyces anomalus DSM 6766, according to previously described protocols. The MTT-based cytotoxicity assay was performed against several cancer cell lines (human endocervical adenocarcinoma KB 3.1, mouse fibroblasts L929, squamous cancer A431, breast cancer MCF-7, lung cancer A549, ovary cancer SK-OV-3, and prostate cancer PC-3) in accordance with our previously established protocols.

[2] = system: Staphylococcus aureus DSM 346; test: MIC serial dilution assay; assay type: cell-based; set-up: key: (-): No inhibition
Procedure: as §1

[3] = system: Mycobacterium smegmatis ATCC 700084; test: MIC serial dilution assay; assay type: cell-based; set-up: key: (-): No inhibition; conditions: starting concentration 66.7 μg/mL
Procedure: as §1

[4] = system: Bacillus subtilis DSM 10; test: MIC serial dilution assay; assay type: cell-based; set-up: key: (-): No inhibition
Procedure: as §1

[5] = system: Schizosaccharomyces pombe DSM 70572; test: MIC serial dilution assay; assay type: cell-based; set-up: key: (-): No inhibition
Procedure: as §1

[6] = system: Chromobacterium violaceum DSM 30191; test: MIC serial dilution assay; assay type: cell-based; set-up: key: (-): No inhibition; conditions: starting concentration 66.7 μg/mL
Procedure: as §1

[7] = system: Mucor hiemalis DSM 2656; test: MIC serial dilution assay; assay type: cell-based; set-up: key: (-): No inhibition
Procedure: as §1

[8] = system: Acinetobacter baumannii DSM 30008; test: MIC serial dilution assay; assay type: cell-based; set-up: key: (-): No inhibition; conditions: Acinetobacter baumanii; starting concentration 66.7 μg/mL
Procedure: as §1

[9] = system: Wickerhamomyces anomalus DSM 6766; test: MIC serial dilution assay; assay type: cell-based; set-up: key: (-): No inhibition
Procedure: as §1

[10] = system: Candida albicans DSM 1665; test: MIC serial dilution assay; assay type: cell-based; set-up: key: (-): No inhibition; conditions: starting concentration 66.7 μg/mL
Procedure: as §1

[11] = system: Pseudomonas aeruginosa PA14; test: MIC serial dilution assay; assay type: cell-based; set-up: key: (-): No inhibition; conditions: starting concentration 66.7 μg/mL
Procedure: as §1

[12] = system: Escherichia coli DSM 1116; test: MIC serial dilution assay; assay type: cell-based; set-up: key: (-): No inhibition; conditions: starting concentration 66.7 μg/mL
Procedure: as §1

[13] = system: panel of bacteria and fungi; test: Antimicrobial serial dilution assay, whole panel; assay type: cell-based; conditions: result in words
Procedure: as §1

[14] = system: mammalian cell lines; test: cells; assay type: cell-based
Procedure: as §1

[15] = system: mouse fibroblasts L929; test: MTT-based cytotoxicity assay; assay type: cell-based; conditions: Mus musculus
Procedure: as §1

[16] = system: human endocervical adenocarcinoma KB 3.1; test: MTT-based cytotoxicity assay; assay type: cell-based; conditions: for pIC50: Homo sapiens, KB 3-1
Procedure: as §1

[17] = system: breast cancer MCF-7; test: MTT-based cytotoxicity assay; assay type: cell-based; conditions: Homo sapiens, MCF7
Procedure: as §1

[18] = system: lung cancer A549; test: MTT-based cytotoxicity assay; assay type: cell-based; conditions: Homo sapiens
Procedure: as §1

[19] = system: ovary cancer SK-OV-3; test: MTT-based cytotoxicity assay; assay type: cell-based; conditions: Homo sapiens, SK-OV-3
Procedure: as §1

[20] = system: prostate cancer PC-3; test: MTT-based cytotoxicity assay; assay type: cell-based
Procedure: as §1

[21] = system: squamous cancer A431; test: MTT-based cytotoxicity assay; assay type: cell-based; conditions: Homo sapiens, A-431
Procedure: as §1

[22] = system: MptpB; conditions: result in words; ref 63 (Cui et al.); cited from earlier work
[23] = starting concentration 66.7 μg/mL
[24] = starting concentration 37 µg/mL, read-out: IC50
[25] = KB3.1, starting concentration 37 µg/mL, read-out: IC50
[26] = DSM346, starting concentration 66.7 μg/mL, read-out: MIC
[27] = DSM10, starting concentration 66.7 μg/mL, read-out: MIC
[28] = DSM2656, starting concentration 66.7 μg/mL, read-out: MIC
[29] = Rhodotorula glutinis, DSM10134, read-out: MIC
[30] = DSM70572, starting concentration 66.7 μg/mL, read-out: MIC

| SMILES | MIC [1] | MIC [3] | MIC [5, 23] | MIC [6] | MIC [8] | MIC [9, 23] | MIC [10] | MIC [11] | MIC [12] | pIC50 [15, 24] | pIC50 [16, 25] | MIC [2, 26] [µg/mL] | MIC [4, 27] [µg/mL] | MIC [7, 28] [µg/mL] | further results |
| --- | --- | --- | --- | --- | --- | --- | --- | --- | --- | --- | --- | --- | --- | --- | --- |
| CCC(C)C1OC(=O)CNC(=O)CNC(=O)[C@H]([C@@H](C)O)NC(=O)C(C)C(O)CC(O)CC/C=C/C1C (stereo partly shown) [Compound 1, eucalactam B] | - | - | - | - | - | - | - | - | - | < 4.14 | < 4.14 |  |  |  | MIC [2, 23]: -; MIC [4, 23]: -; MIC [7, 23]: -; antimicrobial activity against the tested microorganisms [13]: devoid of any activity; cytotoxic effect ([14]; mammalian cell lines, result in words): did not show any cytotoxic effect |
| C/C(=C\c1csc(C)n1)[C@@H]1C[C@@H]2O[C@]2(C)CCC[C@H](C)[C@H](O)[C@@H](C)C(=O)C(C)(C)[C@@H](O)CC(=O)O1 [Epothilone B, reference compound] |  |  |  |  |  |  |  |  |  |  |  |  |  |  | pIC50 [17]: 10.21; pIC50 [18]: 10.16; pIC50 [19]: 10.00; pIC50 [15]: 9.37; pIC50 [20]: 10.14; pIC50 [16]: 10.35; pIC50 [21]: 10.26 |
| CC(C)=CCc1ccc(O)c2c1C(O)(c1cc(C)cc3c1O[C@H](C(C)(C)O)CO3)OC2 (mixture of isomers) [Compound 3, isoprenylisobenzofuran C1/C2] | - | - | - | - | - | - | - | - | - | 4.29 | 4.48 | 33.3 | 33.3 | 66.6 |  |
| CC(C)=CCc1ccc(O)c(C=O)c1C(=O)c1cc(C)cc2c1OC(C(C)(C)O)CO2 (stereo not shown) [Compound 6, tenellone B] |  | - |  | - | - |  | - | - | - | 4.31 | 4.70 | 16.6 (≈ 39.1 µM) | 16.6 (≈ 39.1 µM) | 16.6 (≈ 39.1 µM) | MIC [1, 29]: 16.6 µg/mL (≈ 39.1 µM); MIC [5, 30]: 66.6 µg/mL (≈ 157 µM); MIC ([9]; Hansenula anomala, DSM6766, starting concentration 66.7 μg/mL, read-out: MIC): 66.6 µg/mL (≈ 157 µM); pIC50 ([14]; A431, MCF-7, A549, SKOV-3 and PC-3, read-out: IC50, range over five other mammalian cell lines): 4.37 to 4.75; pIC50 ([17]; MCF-7, starting concentration 37 µg/mL, read-out: IC50): 4.75; pIC50 [18, 24]: 4.68; pIC50 ([19]; SKOV-3, starting concentration 37 µg/mL, read-out: IC50): 4.37; pIC50 ([20]; PC-3, starting concentration 37 µg/mL, read-out: IC50): 4.75; pIC50 ([21]; A431, starting concentration 37 µg/mL, read-out: IC50): 4.71 |
| CC(C)=CCc1ccc(O)c2c1C(O)(c1cc(C)cc3c1OC(C(C)(C)O)CO3)OC2=O (stereo not shown) [Compound 2, isoprenylisobenzofuran B] | - | - | - | - | - | - | - | - | - | < 4.08 | < 4.08 |  |  |  | MIC [2, 23]: -; MIC [4, 23]: -; MIC [7, 23]: -; antimicrobial activity against the tested microorganisms [13]: no activity; IC50 ([16]; KB3.1, starting concentration 37 µg/mL): slight inhibition |
| CC(C)=CCc1ccc(O)c2c1[C@@H](c1cc(C)cc3c1O[C@H](C(C)(C)O)CO3)NC2=O [diaporisoindole A] |  |  |  |  |  |  |  |  |  |  |  |  |  |  | inhibitory activity against MptpB [22]: potent inhibitory activity |
| CC(C)=CCc1ccc(O)c2c1C(O)(c1cc(C)cc3c1O[C@H](C(C)(C)O)CO3)NC2=O (stereo partly shown) [Compound 4, diaporisoindole F1/F2] |  | - |  | - | - | - | - | - | - | 4.23 | 4.50 | 66.6 (≈ 152 µM) | 66.6 (≈ 152 µM) | 33.3 (≈ 75.8 µM) | MIC [1, 29]: 33.3 µg/mL (≈ 75.8 µM); MIC [5, 30]: 33.3 µg/mL (≈ 75.8 µM) |

— paper PMC10381184, “Unprecedented Antimicrobial and Cytotoxic Polyketides from Cultures of Diaporthe africana sp. nov” (Journal of Fungi, 2023)
